Test results published in patent US10676449B2, “Electronically activated strained alkynes” (Wisconsin Alumni Research Foundation, priority 2017, dated 2020).

Tests used:
Format in all cases: physicochemical
[1] = strain-promoted 1,3-dipolar cycloaddition kinetics with benzyl azide (experimental second order rate constants); conditions: for k2: 1,3-dipolar cycloaddition with benzyl azide 5, acetonitrile, ambient temperatures; for krel.: reaction with benzyl azide, relative to 4b = 1.0; for Experimental Rate: CD3CN; for change of rate of reaction with benzyl azide, in words: relative to the comparator alkyne
From the text: The reactivity of the novel strained alkyne derivatives disclosed herein were first assessed using benzyl azide 5 as a model substrate (Table 1, model reaction at top). […] When steric hindrance was increased by placing the more bulky isopropyl group at C1, the rate of the reaction slowed to a sixth of that of […]. […] The effects of the heteroatoms in the ring were similarly pronounced. […] For Me-substituted substrates 4a and 4d, the rates slowed to roughly half their unprotected values. While a more electron-poor nitrogen heteroatom is expected to result in a stronger electronic effect and an expected increase in reaction rate, the conflicting effects of bond lengthening and steric repulsion between the Boc and R^1 groups overrides any benefit and results in a net slowing of rate. Similarly, when the homopropargylic oxygen atom was replaced with a Boc-protected nitrogen atom, the rate fell dramatically to an eighteenth of that of the sulfamate (4f). The fastest substrate, 1a, compares favorably to other reported strained alkynes. It is faster than OCT, the exocyclic heteroatom-activated MOFO, and the endocyclic heteroatom-activated alkynes reported by Toomoka et al., supra. The reaction rate of 1a is surpassed only slightly by DIFO.
With the difluorinated SNO-OCT 8a in hand, preliminary kinetic studies were carried out (Table 7) and compared to computed and experimental rates of both the parent SNO-OCTs 4 and 6, as well as 8. A rate enhancement of 13-fold was predicted in moving from the parent SNO-OCT 6 (entry 1, right column) to the difluorinated SNO-OCT 8 (entry 3, right column) in reactions with alkyl azides; this was quite similar to the experimental rate enhancement seen in moving from 4 to 8a of 18× (entries 1 and 3 in the left column).

[2] = experimental cycloaddition of SNO-OCTs with diazoacetamide; conditions: dipole diazoacetamide; CD3CN
From the text: A rate enhancement of ˜300-fold was predicted in moving from the parent SNO-OCT 6 (entry 2, right column) to the difluorinated SNO-OCT 8 (entry 4, right column) in reactions with alkyl diazaoacetamides. Experimentally, the rate enhancement in moving from 4 to 8a (entries 2 and 4 in the left column) could not be determined using proton NMR spectroscopy to monitor the progress of the reaction. […] While orthogonality was also observed for reactions of 4 and 8a with azides, the selectivity appeared to be lower than that predicted for the diazoalkanes.

[3] = experimental rate comparison of cycloalkynes with diazoacetamide 8 and azidoacetamide 7; conditions: ratio of rate constants with diazoacetamide and azidoacetamide
From the text: For these exploratory studies, diazoacetamide 8 (Table 3) and azidoacetamide 7 were chosen because of the increased nucleophilicity of 8 as compared to azide 7 and its ability to survive cellular metabolism. When comparing rate differences with diazoacetamide 8 and azidoacetamide 7 for common cycloalkynes, DIBAC reacted˜5-times faster with the diazoacetamide than the analogous azide in 1:1 CD3CN:D2O. […] At the same time, these compounds provide for complete selectivity that is as of yet lacking in cyclooctynes. It was hypothesized by the present inventors that properly positioned heteroatoms in sulfamate-derived cyclooctynes would lead to an increase in diazo-selective reactivity over azides, thus enabling orthogonal bioconjugation techniques.
The effects of the various heteroatoms on this increased chemoselectivity were investigated computationally. […] In contrast, the ΔΔG‡ is expected to increase, likely due to increased steric repulsion from the bulky Boc-group. This difference in rate provides ˜9:1 selectivity in competition experiments involving 1:1:1 mixtures of diazoacetamide […]:alkyne (4d, 4e). Efforts to improve the selectivity for reaction with 1 were undertaken by examining the effects of both propargylic and homopropargylic heteroatoms in 4.

Compound	k2 [1] [M⁻¹ s⁻¹]	krel. [1]	change of rate of reaction with benzyl azide, in words [1]	other results
CC1C#CC(C)NS(=O)(=O)OC1 (stereo not drawn) [4g]	0.047	1.9		
CCCCCC1C#CCCOS(=O)(=O)N1 (stereo not drawn) [4b]		1.0		
CCCCCC1C#CCCOS(=O)(=O)N1 (stereo not drawn) [compound 4]				Experimental Rate [2]: 0.27 M⁻¹ s⁻¹
dibenzoazacyclooctyne [DIBAC, reference compound]				k2 ratio, diazoacetamide:azidoacetamide ([3]; CD3CN:D2O = 1:1): 6.5; k2 ratio, diazoacetamide:azidoacetamide ([3]; in CD3CN): 2.0
CCC1C#CC(F)(F)COS(=O)(=O)N1 (stereo not drawn) [8a]				Experimental Rate ([1]; dipole Bn—N3): 0.46 M⁻¹ s⁻¹; experimental rate enhancement in moving from 4 ([1]; reactions with alkyl azides (Bn—N3)): 18 ×
CC(C)C1C#CCCOS(=O)(=O)N1 (stereo not drawn) [4c]	0.0040	0.16	a sixth	
CC1C#CCCOS(=O)(=O)N1C(=O)OC(C)(C)C (stereo not drawn) [4d]	0.037	1.5	roughly half	k2 ratio, diazoacetamide:azidoacetamide ([3]; in CD3CN): 5.0
[N-]=[N+]=NCc1ccccc1 [compound 5]				Experimental Rate (value in parentheses) ([1]; dipole Bn—N3, 2:1 D2O:CD3CN): 0.13 M⁻¹ s⁻¹; Experimental Rate ([1]; dipole Bn—N3): 0.087 M⁻¹ s⁻¹
CCCCCC1C#CCCOS(=O)(=O)N1C(=O)OC(C)(C)C (stereo not drawn) [4e]	0.042	1.7	slowed slightly	
CCCCCC1C#CCCN(C(=O)OC(C)(C)C)S(=O)(=O)N1 (stereo not drawn) [4h]	0.0014	0.056		
CC(C)C1C#CCCOS(=O)(=O)N1C(=O)OC(C)(C)C (stereo not drawn) [4f]			an eighteenth	
CC1C#CCCOS(=O)(=O)N1 (stereo not drawn) [4a]	0.066	2.6		k2 ratio, diazoacetamide:azidoacetamide ([3]; CD3CN:D2O = 1:1): 8.5; k2 ratio, diazoacetamide:azidoacetamide ([3]; in CD3CN): 3.0
